Source: patent US12458597B2, “Carotenoid compositions and uses thereof” (L.E.A.F. HOLDINGS GROUP LLC, priority 2018, dated 2025)

Legend:
[1] = Liposomal CTC and MTC PK in mice, plasma STC by HPLC; type: in vivo; conditions: mouse, single dose, slow intravenous bolus
[2] = Maximum solubility of trans-crocetin sodium in aqueous media; type: physicochemical; conditions: 5% dextrose (aqueous medium), saline or isotonic; in 5% dextrose
Procedure: The ethanolic lipid solution containing HSPC, cholesterol, PEG-DSPE, with/without PGPC was added into the aqueous solution using a pipet. During this step the solution was well stirred using a magnetic stirrer. The mixing was performed at an elevated temperature (63° C.-72° C.) to ensure that the lipids are in the liquid crystalline state (as opposed to the gel state they attain at temperatures below the lipid transition temperature (Tm=51° C.-54° C.). As a result, the lipids are hydrated and formed multiple bilayer (multilamellar) vesicles (MLV) containing trans-crocetin sodium in the aqueous core. The MLVs were then downsized by extrusion as described previously.
The ethanolic lipid solution containing HSPC, cholesterol, PEG-DSPE, with/without PGPC and the trans-crocetin sodium aqueous solution were separately transferred to syringes. Two solutions were injected into a microfluidic channel and mixed while flowing through it with Precision NanoSystems' NanoAssemblr® device. The mixing was performed at an elevated temperature (63° C.-72° C.) to ensure that the lipids were in a liquid crystalline state (as opposed to the gel state that they attain at temperatures below the lipid transition temperature (Tm=51° C.-54° C.). The liposome size can be controlled by varying the ratio between lipid solution and aqueous solution, as well as the mixing flow rate.

[3] = tested on: mouse CLP sepsis model; assay: CLP sepsis survival Study 1 (TP-936); type: in vivo, C57BL/6 mice; conditions: CLP mice treated with saline and imipenem (control group); over 5 days
Excerpt: Male and/or female C57BL/6 mice ordered from Envigo Laboratories or the Jackson Lab (Bar Harbor, Maine) were acclimated to housing conditions and handled in accordance with Animal Use Protocol (AUP) number TP-05. The animals were acclimated for approximately 1 week prior to study start. Only animals deemed healthy were included in this study. Animals were fed irradiated Teklad Global Rodent Diet 2918 and water ad libitum. Mice were group housed 5/cage in static cages with irradiated Teklad ⅛″ corn cob bedding 7902 inside bioBubble® Clean Rooms that provide H.E.P. A filtered air into the bubble environment at 100 complete air changes per hour. The environment was controlled to a temperature range of 74°±5° F. and a humidity range of 30-70%. Treatment groups were identified by cage card. Individual mice were identified by indelible marker on the base of the tail. All procedures carried out in this experiment were conducted in compliance with the laws, regulations, and guidelines of the National Institutes of Health and with the approval of the TransPharm Animal Care and Use Committee.
On Day −1, male and/or female mice were anesthetized through use of isoflurane and brought to a surgical plane. […]
Animals were monitored continually post-surgery, at least once every 2-3 minutes for approximately 30 minutes, until the animals had recovered and were able to move about on their own. […]

[4] = Balb/c, iv, plasma over 24 hour

Row | AUC [1, 4] [µg·h/mL] | half-life [1, 4] [min] | Cmax ([1]; Balb/c mice) [µg/mL] | solubility [2] [µg/mL] | SMILES | mortality [3] [%]
1 | 210 | 21 | 360 | 700 | CC(/C=C/C=C(\C)C(=O)O)=C\C=C\C=C(C)\C=C\C=C(/C)C(=O)O [STC free drug, sodium trans-crocetinate] | –
2 | – | – | – | – | C[C@@H](O)[C@H]1C(=O)N2C(C(=O)O)=C(SCCN=CN)C[C@H]12 [imipenem] | 50
